Values quoted from earlier work as cited in US9808553B2, “Haemostatic wound dressing” (Haemostatix Limited, priority 2012, dated 2017).

Molecular target: fibrinogen (Homo sapiens, UniProt P02679)
Sequence (P02679 27-453): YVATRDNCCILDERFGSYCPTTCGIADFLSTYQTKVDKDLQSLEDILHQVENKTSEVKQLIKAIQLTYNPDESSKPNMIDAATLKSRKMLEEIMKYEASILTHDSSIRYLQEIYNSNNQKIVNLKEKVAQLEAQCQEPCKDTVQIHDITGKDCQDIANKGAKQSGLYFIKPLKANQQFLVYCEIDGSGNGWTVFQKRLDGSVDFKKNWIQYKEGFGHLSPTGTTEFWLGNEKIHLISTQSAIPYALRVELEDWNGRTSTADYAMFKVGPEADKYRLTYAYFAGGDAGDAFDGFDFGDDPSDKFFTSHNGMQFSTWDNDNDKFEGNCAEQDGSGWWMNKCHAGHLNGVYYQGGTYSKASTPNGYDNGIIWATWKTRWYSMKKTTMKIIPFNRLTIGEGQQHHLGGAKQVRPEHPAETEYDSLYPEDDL
Sequence (P02671 20-629 partner limits assumed): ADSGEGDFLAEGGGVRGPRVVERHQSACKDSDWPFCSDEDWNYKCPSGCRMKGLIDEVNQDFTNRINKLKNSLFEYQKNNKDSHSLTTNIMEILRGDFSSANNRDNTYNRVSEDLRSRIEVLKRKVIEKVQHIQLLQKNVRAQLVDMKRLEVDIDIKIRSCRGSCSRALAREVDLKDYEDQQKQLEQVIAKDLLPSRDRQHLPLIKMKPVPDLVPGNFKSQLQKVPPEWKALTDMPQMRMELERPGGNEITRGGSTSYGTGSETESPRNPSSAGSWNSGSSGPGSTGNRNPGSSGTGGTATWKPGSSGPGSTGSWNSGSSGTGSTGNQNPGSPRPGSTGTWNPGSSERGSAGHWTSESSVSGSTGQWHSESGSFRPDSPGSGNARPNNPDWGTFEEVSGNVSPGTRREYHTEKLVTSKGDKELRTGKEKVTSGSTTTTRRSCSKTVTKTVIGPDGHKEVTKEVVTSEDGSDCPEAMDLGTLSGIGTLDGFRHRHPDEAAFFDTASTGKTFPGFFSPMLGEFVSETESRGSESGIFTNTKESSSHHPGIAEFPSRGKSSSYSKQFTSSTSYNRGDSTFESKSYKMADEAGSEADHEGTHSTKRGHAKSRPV
Sequence (P02675 31-491 partner): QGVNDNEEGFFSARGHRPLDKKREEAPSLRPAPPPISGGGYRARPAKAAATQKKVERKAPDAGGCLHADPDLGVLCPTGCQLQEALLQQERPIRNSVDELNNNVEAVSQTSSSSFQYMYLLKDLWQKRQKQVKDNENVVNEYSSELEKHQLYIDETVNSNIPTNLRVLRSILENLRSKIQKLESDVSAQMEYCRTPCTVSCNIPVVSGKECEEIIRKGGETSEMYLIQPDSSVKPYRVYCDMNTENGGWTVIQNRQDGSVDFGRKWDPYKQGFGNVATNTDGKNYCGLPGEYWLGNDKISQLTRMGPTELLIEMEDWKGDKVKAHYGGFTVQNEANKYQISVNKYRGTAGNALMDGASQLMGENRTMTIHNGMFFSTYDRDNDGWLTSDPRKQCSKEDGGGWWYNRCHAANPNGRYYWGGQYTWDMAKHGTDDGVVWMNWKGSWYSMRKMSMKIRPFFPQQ

Substance: GPRP
- Affinity for fibrinogen versus natural cleaved sequence with valine at position four: higher affinity
